Source: US20250154686A1, “COMPOUND LIBRARY” (CHUGAI SEIYAKU KABUSHIKI KAISHA, priority 2021, published 2025)

Target: T1, Bcl-2 protein (Recombinant Human Bcl-2 Protein) (Homo sapiens, UniProt P10415)
T1 construct: purchased Novus Biologicals NBP2-34889
Experiment: AS-MS evaluation of binding of the Example 4 mixture library (1200 compounds/well) to Bcl-2, ASMS ratio (%)
Settings: AS-MS, Example 4 mixture library; for ASMS ratio (%) n = 1: Bcl-2, replicate n = 1; for ASMS ratio (%) n = 2: Bcl-2, replicate n = 2
In short: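 Recombinant human Bcl-2 at 20 μM final was exposed to a 1200-member compound pool (20 nM per compound) in pH 7.4 Tris-HCl buffer containing NaCl, Tween-20 and DTT. After 1 h at 23 °C, protein–ligand complexes passed SEC spin columns; LC/MS signals were compared with protein-free standard and blank samples to give ASMS ratio.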

T1 sequence (P10415 whole entry): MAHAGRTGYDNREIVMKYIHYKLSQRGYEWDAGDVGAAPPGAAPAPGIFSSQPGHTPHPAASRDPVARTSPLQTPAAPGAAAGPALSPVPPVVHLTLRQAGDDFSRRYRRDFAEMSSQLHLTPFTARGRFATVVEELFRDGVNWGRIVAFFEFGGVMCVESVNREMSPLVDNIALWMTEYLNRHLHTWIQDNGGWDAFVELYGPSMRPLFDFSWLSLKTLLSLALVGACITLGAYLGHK

Row | SMILES | ASMS ratio (%) n = 1 [%] | ASMS ratio (%) n = 2 [%]
1 | CCOc1cncc(-c2ccc(CN3CCN(c4ccc(C(=O)NS(=O)(=O)C(C)(C)C)nn4)CC3)c3ccccc23)c1 [Compound B2L092-01, N-tert-Butylsulfonyl-6-[4-[[4-(5-ethoxypyridin-3-yl)naphthalen-1-yl]methyl]piperazin-1-yl]pyridazine-3-carboxamide] | 5.5 | 7.8
2 | CCOc1cccc(-c2csc(CN3CCN(c4ccc(C(=O)NS(=O)(=O)C(C)(C)C)nn4)CC3)c2)c1 [Compound B2L093-01] | – | 0.0
3 | CCOc1cncc(-c2csc(CN3CCN(c4ccc(C(=O)NS(=O)(=O)C(C)(C)C)nn4)CC3)c2)c1 [Compound B2L094-01, N-tert-Butylsulfonyl-6-[4-[[4-(5-ethoxypyridin-3-yl)thiophen-2-yl]methyl]piperazin-1-yl]pyridazine-3-carboxamide] | 0.2 | 1.8
4 | CCOc1cccc(C#Cc2ccccc2CN2CCN(c3ccc(C(=O)NS(=O)(=O)C(C)(C)C)nn3)CC2)c1 [Compound B2L095-01] | 0.0 | 0.0
5 | CCOc1cncc(C#Cc2ccccc2CN2CCN(c3ccc(C(=O)NS(=O)(=O)C(C)(C)C)nn3)CC2)c1 [Compound B2L096-01] | 0.0 | 0.0
6 | CCOc1cccc(-c2ccc(C(C)N3CCN(c4ccc(C(=O)NS(=O)(=O)C(C)(C)C)cc4)CC3)cc2)c1 (stereo not shown) [Compound B2L097-01, N-tert-Butylsulfonyl-4-[4-[1-[4-(3-ethoxyphenyl)phenyl]ethyl]piperazin-1-yl]benzamide] | 0.0 | 0.0
7 | CCOc1cncc(-c2ccc(C(C)N3CCN(c4ccc(C(=O)NS(=O)(=O)C(C)(C)C)cc4)CC3)cc2)c1 (stereo not shown) [Compound B2L098-01, N-tert-Butylsulfonyl-4-[4-[1-[4-(5-ethoxypyridin-3-yl)phenyl]ethyl]piperazin-1-yl]benzamide] | 3.9 | −5.0
8 | CCOc1cncc(-c2ccc(C(C)N3CCN(c4ccc(C(=O)NS(=O)(=O)C(C)(C)C)cc4)CC3)c(F)c2)c1 (stereo not shown) [Compound B2L100-01, N-tert-Butylsulfonyl-4-[4-[1-[4-(5-ethoxypyridin-3-yl)-2-fluorophenyl]ethyl]piperazin-1-yl]benzamide] | 0.0 | 0.0
9 | CCOc1cncc(-c2csc(C(=O)N3CCN(c4ccc(C(=O)NS(=O)(=O)CCC(F)(F)F)nn4)CC3)c2)c1 [Compound B2N002-01, 6-[4-[4-(5-Ethoxypyridin-3-yl)thiophene-2-carbonyl]piperazin-1-yl]-N-(3,3,3-trifluoropropylsulfonyl)pyridazine-3-carboxamide] | 0.0 | 0.0
10 | CCOc1cccc(C#Cc2cncc(C(=O)N3CCN(c4ccc(C(=O)NS(=O)(=O)CCC(F)(F)F)nn4)CC3)c2)c1 [Compound B2N009-01, 6-[4-[5-[2-(3-Ethoxyphenyl)ethynyl]pyridine-3-carbonyl]piperazin-1-yl]-N-(3,3,3-trifluoropropylsulfonyl)pyridazine-3-carboxamide] | 0.0 | −0.4
11 | CCOc1cncc(C#Cc2cncc(C(=O)N3CCN(c4ccc(C(=O)NS(=O)(=O)CCC(F)(F)F)nn4)CC3)c2)c1 [Compound B2N010-01, 6-[4-[5-[2-(5-Ethoxypyridin-3-yl)ethynyl]pyridine-3-carbonyl]piperazin-1-yl]-N-(3,3,3-trifluoropropylsulfonyl)pyridazine-3-carboxamide] | 0.0 | 0.0
12 | CCOc1cncc(-c2cc(C(=O)N3CCN(c4ccc(C(=O)NS(=O)(=O)CCC(F)(F)F)nn4)CC3)cc(C(C)(C)C)c2)c1 [Compound B2N016-01, 6-[4-[3-tert-Butyl-5-(5-ethoxypyridin-3-yl)benzoyl]piperazin-1-yl]-N-(3,3,3-trifluoropropylsulfonyl)pyridazine-3-carboxamide] | 0.0 | 0.0
13 | CCOc1cncc(-c2cc(C(=O)N3CCN(c4ccc(C(=O)NS(=O)(=O)CCC(F)(F)F)nn4)CC3)cc(C(F)(F)F)c2)c1 [Compound B2N018-01, 6-[4-[3-(5-Ethoxypyridin-3-yl)-5-(trifluoromethyl)benzoyl]piperazin-1-yl]-N-(3,3,3-trifluoropropylsulfonyl)pyridazine-3-carboxamide] | 0.0 | 1.0
14 | CCOc1cncc(C#Cc2cc(C(=O)N3CCN(c4ccc(C(=O)NS(=O)(=O)CCC(F)(F)F)nn4)CC3)cc(C(F)(F)F)c2)c1 [Compound B2N020-01, 6-[4-[3-[2-(5-Ethoxypyridin-3-yl)ethynyl]-5-(trifluoromethyl)benzoyl]piperazin-1-yl]-N-(3,3,3-trifluoropropylsulfonyl)pyridazine-3-carboxamide] | 0.0 | 0.0
15 | CCOc1cccc(-c2cnn(-c3cc(C(=O)N4CCN(c5ccc(C(=O)NS(=O)(=O)CCC(F)(F)F)nn5)CC4)cc(C(F)(F)F)c3)c2)c1 [Compound B2N021-01, 6-[4-[3-[4-(3-Ethoxyphenyl)pyrazol-1-yl]-5-(trifluoromethyl)benzoyl]piperazin-1-yl]-N-(3,3,3-trifluoropropylsulfonyl)pyridazine-3-carboxamide] | – | 0.0
16 | CCOc1cncc(-c2cnn(-c3cc(C(=O)N4CCN(c5ccc(C(=O)NS(=O)(=O)CCC(F)(F)F)nn5)CC4)cc(C(F)(F)F)c3)c2)c1 [Compound B2N022-01, 6-[4-[3-[4-(5-Ethoxypyridin-3-yl)pyrazol-1-yl]-5-(trifluoromethyl)benzoyl]piperazin-1-yl]-N-(3,3,3-trifluoropropylsulfonyl)pyridazine-3-carboxamide] | 0.0 | 0.0
17 | CCOc1cccc(-c2csc(C(=O)N3CCN(c4ccc(C(=O)NS(=O)(=O)CCC(F)(F)F)cc4)CC3)c2)c1 [Compound B2N023-01, 4-[4-[4-(3-Ethoxyphenyl)thiophene-2-carbonyl]piperazin-1-yl]-N-(3,3,3-trifluoropropylsulfonyl)benzamide] | 0.0 | 0.0

Second part, the molecule after the results:

Row | ASMS ratio (%) n = 1 [%] | ASMS ratio (%) n = 2 [%] | SMILES
18 | – | 0.0 | CCOc1cccc(-c2csc(C(=O)N3CCN(c4ccc(C(=O)NS(=O)(=O)CCC(F)(F)F)nn4)CC3)c2)c1 [Compound B2N001-01, 6-[4-[4-(3-Ethoxyphenyl)thiophene-2-carbonyl]piperazin-1-yl]-N-(3,3,3-trifluoropropylsulfonyl)pyridazine-3-carboxamide]
19 | 0.0 | 0.0 | CCOc1cccc(-c2ccc(C(=O)N3CCN(c4ccc(C(=O)NS(=O)(=O)CCC(F)(F)F)nn4)CC3)cc2C)c1 [Compound B2N003-01, 6-[4-[4-(3-Ethoxyphenyl)-3-methylbenzoyl]piperazin-1-yl]-N-(3,3,3-trifluoropropylsulfonyl)pyridazine-3-carboxamide]
20 | 1.2 | −2.0 | CCOc1cncc(-c2ccc(C(=O)N3CCN(c4ccc(C(=O)NS(=O)(=O)CCC(F)(F)F)nn4)CC3)cc2C)c1 [Compound B2N004-01, 6-[4-[4-(5-Ethoxypyridin-3-yl)-3-methylbenzoyl]piperazin-1-yl]-N-(3,3,3-trifluoropropylsulfonyl)pyridazine-3-carboxamide]
21 | 0.0 | 0.0 | CCOc1cccc(C#Cc2ccccc2C(=O)N2CCN(c3ccc(C(=O)NS(=O)(=O)CCC(F)(F)F)nn3)CC2)c1 [Compound B2N007-01, 6-[4-[2-[2-(3-Ethoxyphenyl)ethynyl]benzoyl]piperazin-1-yl]-N-(3,3,3-trifluoropropylsulfonyl)pyridazine-3-carboxamide]
22 | 0.0 | −0.4 | CCOc1cncc(C#Cc2ccccc2C(=O)N2CCN(c3ccc(C(=O)NS(=O)(=O)CCC(F)(F)F)nn3)CC2)c1 [Compound B2N008-01, 6-[4-[2-[2-(5-Ethoxypyridin-3-yl)ethynyl]benzoyl]piperazin-1-yl]-N-(3,3,3-trifluoropropylsulfonyl)pyridazine-3-carboxamide]
23 | 0.0 | 0.0 | CCOc1cccc(-c2ccccc2CCC(=O)N2CCN(c3ccc(C(=O)NS(=O)(=O)CCC(F)(F)F)nn3)CC2)c1 [Compound B2N011-01, 6-[4-[3-[2-(3-Ethoxyphenyl)phenyl]propanoyl]piperazin-1-yl]-N-(3,3,3-trifluoropropylsulfonyl)pyridazine-3-carboxamide]
24 | 0.0 | 0.0 | CCOc1cncc(-c2ccccc2CCC(=O)N2CCN(c3ccc(C(=O)NS(=O)(=O)CCC(F)(F)F)nn3)CC2)c1 [Compound B2N012-01, 6-[4-[3-[2-(5-Ethoxypyridin-3-yl)phenyl]propanoyl]piperazin-1-yl]-N-(3,3,3-trifluoropropylsulfonyl)pyridazine-3-carboxamide]
25 | 0.0 | 0.0 | CCOc1cccc(-c2ccc(C(=O)N3CCN(c4ccc(C(=O)NS(=O)(=O)CCC(F)(F)F)nn4)CC3)c3ccccc23)c1 [Compound B2N013-01, 6-[4-[4-(3-Ethoxyphenyl)naphthalene-1-carbonyl]piperazin-1-yl]-N-(3,3,3-trifluoropropylsulfonyl)pyridazine-3-carboxamide]
26 | 0.0 | 0.0 | CCOc1cncc(-c2ccc(C(=O)N3CCN(c4ccc(C(=O)NS(=O)(=O)CCC(F)(F)F)nn4)CC3)c3ccccc23)c1 [Compound B2N014-01, 6-[4-[4-(5-Ethoxypyridin-3-yl)naphthalene-1-carbonyl]piperazin-1-yl]-N-(3,3,3-trifluoropropylsulfonyl)pyridazine-3-carboxamide]
